For one experiment, the target named is T1, human renin (Homo sapiens, UniProt P00797).
T1 sequence (P00797 67-406): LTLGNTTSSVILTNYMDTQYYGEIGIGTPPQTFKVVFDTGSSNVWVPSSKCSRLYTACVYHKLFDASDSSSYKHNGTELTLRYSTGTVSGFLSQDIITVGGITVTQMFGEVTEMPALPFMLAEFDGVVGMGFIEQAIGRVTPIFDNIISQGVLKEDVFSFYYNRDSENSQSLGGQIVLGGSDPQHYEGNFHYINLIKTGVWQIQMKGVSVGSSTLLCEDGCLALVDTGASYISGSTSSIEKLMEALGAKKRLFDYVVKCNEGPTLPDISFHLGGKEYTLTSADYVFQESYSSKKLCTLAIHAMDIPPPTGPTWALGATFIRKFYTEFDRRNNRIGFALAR
The experiment is described as follows: renin inhibition, methods of published European specification. The experiment is classed as biochemical. From the text: (§1) This compound is the subject of Example 1 below.

The next experiment relates to baboon renin. The experiment is described as follows: renin inhibition, baboon renin. It is filed as biochemical. The settings on record: preliminary results, read-out: IC50 against baboon renin (preliminary results).
Text: as §1
The following are the fully detailed examples referred to earlier. The activity of H-176 (Example I) has already been given.

The next experiment concerns acid proteases. To be noted: cited from earlier work.

Where two headings read alike, the source gives them in different places. Non-standard residues stand in square brackets, D forms with d. Residues, ends and D or L forms follow the SMILES beside them. *: point of attachment. Sta = CC(C)C[C@H](N)[C@@H](O)CC(=O)O; Isovaleryl = CC(C)CC(=O)*

What is called IC50 is the concentration needed to halve the response being measured.

As to H-PHPFH[Sta]VIHK-OH [Example H-189], the IC50 stood at 9 nM at human renin (preliminary results, read-out: IC50 against human renin (preliminary results)) and 12 nM in the experiment with baboon renin.
As for `CC(C)CC(=O)N[C@H](C(=O)N[C@H](C(=O)N[C@@H](CC(C)C)[C@@H](O)CC(=O)N[C@@H](C)C(=O)N[C@@H](CC(C)C)[C@@H](O)CC(=O)O)C(C)C)C(C)C` [pepstatin, iso-valeryl-L-valyl-L-valyl-S,S,-statyl-L-alanyl-S,S-statine] (Isovaleryl-VV[Sta]A[Sta]-OH), the “inhibition of acid proteases (pepsin, cathepsin D, chymosin, renin)” value in the experiment with acid proteases was “inhibits acid proteases in general”.
In the case of H-HPFH[Sta]VIH-OH [Example H-176], the IC50 at human renin (read-out: IC50 against human renin) turned out to be 16 nM.

The record behind these values is patent US4650661A, “Enzyme inhibitors” (priority 1982, dated 1987).
